Results on 5 molecules are retold here after patent publication US20240285571A1, “METHODS OF TREATING BONE INFECTIONS” (MICROBION CORPORATION, priority 2020, published 2024).

Converted amounts (≈) assume the structure as drawn. Like-named read-outs stand apart in the source and are kept apart here.

Usually MIC stands for the lowest concentration found to suppress growth.

One assay relates to C. parapsilosis. Particulars: C. parapsilosis MMX 2323 (ATCC 22019), cited from earlier work.
The test system of a further assay is S. agalactiae. Put plainly: Broth microdilution MIC (Example 5). In kind it is cell-based. Here is the method:
(§1) Test and Comparator Agents: The test agents were stored at room temperature until assayed. […] The stock solutions were allowed to stand for at least 1 hr prior to use to auto-sterilize.
(§2) TestMedia: Test media were prepared and stored in accordance with guidelines from CLSI (4, 6, 7).
(§3) Broth Microdilution MC Testing (Aerobic Bacteria and Yeast): The broth microdilution assay method employed for the susceptibility testing of aerobic bacteria (excluding N. gonorrhoeae which was evaluated by agar dilution) and yeast essentially followed the procedures described by CLSI (3, 4, 7, 8) and employed automated liquid handlers to conduct serial dilutions and liquid transfers. […] These would become the ‘mother plates’ from which ‘daughter’ or test plates would be prepared. The drugs (300 μL at 40× the desired top concentration in the test plates) were dispensed into the appropriate well in Column 1 of the mother plates. The Biomek 2000 was used to make serial two-fold dilutions through Column 11 in the “mother plate”. The wells of Column 12 contained no drug and ultimately served as the organism growth control wells.
(§4) The daughter plates were prepared using the Biomek FX which transferred 5 μL of drug solution from each well of a mother plate to the corresponding well of the correct daughter plate in a single step.
(§5) A standardized inoculum of each organism was prepared per CLSI methods (3, 7). Isolated colonies of each test isolate were picked from the primary plate and a suspension was prepared to equal a 0.5 McFarland turbidity standard. Standardized suspensions were then diluted […] (1:100 for yeast, 1:20 for bacteria). After dilution, the inoculum suspensions were then transferred to compartments of sterile reservoirs divided by length (Beckman Coulter), and the Biomek 2000 was used to inoculate all plates. Daughter plates were placed on the Biomek 2000 in reverse orientation so that plates were inoculated from low to high drug concentration.
(§6) The Biomek 2000 delivered 10 μL of standardized inoculum into each well of the appropriate daughter plate for an additional 1:20 dilution.
(§7) Plates were stacked 4 high, covered with a lid on the top plate, placed into plastic bags, and incubated at 35° C. for approximately 24-48 hr for all yeast isolates and 16-24 hr for aerobic bacteria. Plates were viewed from the bottom using a plate viewer. […] MIC endpoints for the test agents and control compounds were read per CLSI criteria (3, 7).

Another assay concerns E. faecium. Put plainly: Broth microdilution MIC (Example 5). The assay is classed as cell-based. How it is done:
as §1, §2, §3, §4, §5, §6, §7

The test system of another assay is S. pyogenes. Nature of the assay: Broth microdilution MIC (Example 5). In kind it is cell-based. Here is the method:
as §1, §2, §3, §4, §5, §6, §7
For orientation: Dilution methods test growth across graded concentrations, often in twofold steps.

Assay [1] deals with S. pneumoniae. Nature of the assay: Broth microdilution MIC (Example 5). In kind it is cell-based. Here is the method:
as §1, §2, §3, §4, §5, §6, §7

Assay [2] has as its system vancomycin-intermediate Staphylococcus aureus. Put plainly: Broth microdilution MIC (Example 6). In kind it is cell-based. Conditions: Staphylococcus aureus, NRS 13 / VISA, read-out: MIC values. The method, boiled down: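 CLSI broth microdilution in cation-adjusted Mueller Hinton broth, test agents 0.06-64 μg/mL from DMSO stocks, inoculum approx. 5×10^5 CFU/mL. Incubation 35° C for 16–20 hr; MIC taken as lowest concentration inhibiting visible growth.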

Assay [3] relates to S. pneumoniae. Conditions: S. pneumoniae MMX 6837 (ATCC 49619); cited from earlier work.
The subject of another assay is E. faecalis. Put plainly: Broth microdilution MIC (Example 5). In kind it is cell-based, Enterococcus faecalis. Particulars: VRE. Here is the method: as §1, §2, §3, §4, §5, §6, §7
For the next assay, the system named is S. aureus. Nature of the assay: Broth microdilution MIC (Example 5). The assay is classed as cell-based, Staphylococcus aureus. Conditions: Staphylococcus aureus. How it is done:
as §1, §2, §3, §4, §5, §6, §7

The test system of the next assay is C. difficile. Put plainly: Agar dilution MIC, anaerobes (Example 5). The assay is classed as cell-based, Clostridium difficile. Particulars: Clostridioides difficile, read-out: MIC. A general note: In agar dilution, organisms are placed on agar that contains the substance at set levels.
Another assay deals with B. fragilis. Put plainly: Agar dilution MIC, anaerobes (Example 5). The assay is classed as cell-based. Conditions: Bacteroides fragilis, ATCC25285; B. fragilis MMX 123 (ATCC 25285); QC; read-out: MIC.
The mark [4] stands for this setting: S. pyogenes MMX 3820, ERYR CLIR.

Turning to `OC(Cn1cncn1)(Cn1cncn1)c1ccc(F)cc1F` [Fluconazole], the “CLSI QC range of MIC” value with C. parapsilosis (24 hr) is 0.5 to 4 µg/mL; with C. parapsilosis (48 hr), 1 to 4 µg/mL.
On to `CN[C@H](CC(C)C)C(=O)N[C@H]1C(=O)N[C@@H](CC(N)=O)C(=O)N[C@H]2C(=O)N[C@H]3C(=O)N[C@H](C(=O)N[C@H](C(=O)O)c4cc(O)cc(O)c4-c4cc3ccc4O)[C@H](O)c3ccc(c(Cl)c3)Oc3cc2cc(c3O[C@@H]2O[C@H](CO)[C@@H](O)[C@H](O)[C@H]2O[C@H]2C[C@](C)(N)[C@H](O)[C@H](C)O2)Oc2ccc(cc2Cl)[C@H]1O` [Vancomycin], for which the MIC with S. agalactiae (Streptococcus agalactiae, S. agalactiae MMX 3741, ERYR CCR) is 0.5 µg/mL (≈ 0.345 µM); in the assay with S. agalactiae (Streptococcus agalactiae, S. agalactiae MMX 3743, ERYR CCR), 0.5 µg/mL (≈ 0.345 µM); with S. agalactiae (Streptococcus agalactiae, S. agalactiae MMX 4077, ERYR CCR), 0.5 µg/mL (≈ 0.345 µM); in the assay on S. agalactiae (Streptococcus agalactiae, S. agalactiae MMX 4079, ERYR CCR PenR MEMR), 2 µg/mL (≈ 1.38 µM); against S. agalactiae (Streptococcus agalactiae, S. agalactiae MMX 4086, ERYR CCR), 1 µg/mL (≈ 0.69 µM); with E. faecium (E. faecium MMX 485, VRE vanA), over 64 µg/mL. The MIC is over 64 µg/mL in the assay on E. faecium (Enterococcus faecium, VRE); 0.5 µg/mL (≈ 0.345 µM) with S. pyogenes (setting [4]); 0.5 µg/mL (≈ 0.345 µM) against S. pyogenes (S. pyogenes MMX 3919, ERYR); 0.5 µg/mL (≈ 0.345 µM) in the assay on S. pyogenes (S. pyogenes MMX 3929, ERYR CCR); 0.5 µg/mL (≈ 0.345 µM) in the assay on S. pyogenes (S. pyogenes MMX 5091, ERYR CCR); 0.5 µg/mL (≈ 0.345 µM) in the assay with S. pyogenes (Streptococcus pyogenes). The MIC in the assay with S. pneumoniae [1] (Streptococcus pneumoniae, ATCC49619, S. pneumoniae MMX 6837 (ATCC 49619), QC) turned out to be 0.25 µg/mL (≈ 0.173 µM); in the assay on S. pneumoniae [1] (Streptococcus pneumoniae, S. pneumoniae MMX 880, LevR SXTR CCR EryR PenR) it was 0.5 µg/mL (≈ 0.345 µM); in the assay with S. pneumoniae [1] (Streptococcus pneumoniae, S. pneumoniae MMX 937, MemR SXTR CCR EryR PenR) it was 0.5 µg/mL (≈ 0.345 µM); with S. pneumoniae [1] (Streptococcus pneumoniae, S. pneumoniae MMX 3959, CCR EryR), 0.5 µg/mL (≈ 0.345 µM); with S. pneumoniae [1] (Streptococcus pneumoniae, S. pneumoniae MMX 5440, MemR SXTR CCR EryR PenR), 0.25 µg/mL (≈ 0.173 µM); with S. pneumoniae [1] (Streptococcus pneumoniae, S. pneumoniae MMX 5445, MemR SXTR CCR EryR PenR), 0.25 µg/mL (≈ 0.173 µM). Further, the MIC against S. pneumoniae [1] (Streptococcus pneumoniae, S. pneumoniae MMX 8133, MemR SXTR CCR EryR PenR) was 0.25 µg/mL (≈ 0.173 µM); in assay [2] it was 2 µg/mL; with E. faecalis (E. faecalis MMX 8961) it was over 64 µg/mL; with E. faecalis (E. faecalis MMX 8962) it was over 64 µg/mL; in the assay on E. faecalis (Enterococcus faecalis), over 64 µg/mL; in the assay with S. aureus (ATCC 29213 / MSSA, S. aureus MMX 101 (ATCC 29213), QC, MSSA), 1 µg/mL (≈ 0.69 µM). The MIC in the assay with S. aureus (MRSA, S. aureus MMX 5373) was 2 µg/mL (≈ 1.38 µM); against S. aureus (MRSA, S. aureus MMX 6311), 0.25 µg/mL (≈ 0.173 µM); against S. aureus (MRSA, S. aureus MMX 9203) it was 2 µg/mL (≈ 1.38 µM); against S. aureus (MRSA, S. aureus MMX 9204), 1 µg/mL (≈ 0.69 µM); with S. aureus (MRSA, S. aureus MMX 9205), 2 µg/mL (≈ 1.38 µM). Moreover, the “CLSI QC range of MIC” value in the assay with S. pneumoniae [3] was “(0.12-0.5) μg/mL”.
On to `CCC[C@@H]1C[C@@H](C(=O)N[C@@H]([C@H]2O[C@H](SC)[C@H](O)[C@@H](O)[C@H]2O)[C@H](C)Cl)N(C)C1` [Clindamycin], for which the MIC in the assay on C. difficile (ATCC700057, C. difficile MMX 4381 (ATCC 700057), QC, CCI) was 4 µg/mL (≈ 9.41 µM); in the assay on C. difficile (C. difficile MMX 8272, ribotype 255, CCI), 4 µg/mL (≈ 9.41 µM); in the assay with C. difficile (C. difficile MMX 8279, ribotype 005, CCR), over 64 µg/mL; in the assay on C. difficile (C. difficile MMX 8281, ribotype 010, CCR), over 64 µg/mL; in the assay on C. difficile (NCTC13307, C. difficile MMX 5681 (NCTC 13307), ribotype 012, CCR) it was over 64 µg/mL; in the assay with C. difficile (NCTC13336, C. difficile MMX 5680 (NCTC 13336), ribotype 027, CCI METR), 4 µg/mL (≈ 9.41 µM). Further, the MIC in the assay on E. faecium (E. faecium MMX 485, VRE vanA) is over 32 µg/mL; with B. fragilis, 1 µg/mL (≈ 2.35 µM).
As for Penicillin, the minimum inhibitory concentration (MIC) in the assay with S. agalactiae (S. agalactiae MMX 3741, ERYR CCR) is 0.03 µg/mL; against S. agalactiae (S. agalactiae MMX 3743, ERYR CCR), 0.06 µg/mL; against S. agalactiae (S. agalactiae MMX 4077, ERYR CCR), 0.06 µg/mL; against S. agalactiae (S. agalactiae MMX 4079, ERYR CCR PenR MEMR), 2 µg/mL; against S. agalactiae (S. agalactiae MMX 4086, ERYR CCR) it was 0.06 µg/mL; against S. pyogenes (S. pyogenes MMX 3068, EryR) it was at most 0.008 µg/mL. Further, the MIC with S. pyogenes (setting [4]) was at most 0.008 µg/mL; with S. pyogenes (S. pyogenes MMX 3919, ERYR) it was at most 0.008 µg/mL; against S. pyogenes (S. pyogenes MMX 3929, ERYR CCR) it was at most 0.008 µg/mL; against S. pyogenes (S. pyogenes MMX 5091, ERYR CCR), at most 0.008 µg/mL; against S. pneumoniae [1] (S. pneumoniae MMX 880, LevR SXTR CCR EryR PenR), 2 µg/mL; in the assay on S. pneumoniae [1] (S. pneumoniae MMX 937, MemR SXTR CCR EryR PenR), 4 µg/mL. Also, the MIC worked out at 0.12 µg/mL with S. pneumoniae [1] (S. pneumoniae MMX 3959, CCR EryR); 4 µg/mL in the assay on S. pneumoniae [1] (S. pneumoniae MMX 5440, MemR SXTR CCR EryR PenR); 4 µg/mL in the assay on S. pneumoniae [1] (S. pneumoniae MMX 5445, MemR SXTR CCR EryR PenR); 0.25 µg/mL against S. pneumoniae [1] (S. pneumoniae MMX 6837 (ATCC 49619), QC); 4 µg/mL in the assay on S. pneumoniae [1] (S. pneumoniae MMX 8133, MemR SXTR CCR EryR PenR). Besides, the “CLSI QC range of MIC” value with S. pneumoniae [3] was “(0.25-1) μg/mL”.
With `CC[C@H]1OC(=O)[C@H](C)[C@@H](O[C@H]2C[C@@](C)(OC)[C@@H](O)[C@H](C)O2)[C@H](C)[C@@H](O[C@@H]2O[C@H](C)C[C@H](N(C)C)[C@H]2O)[C@](C)(O)C[C@@H](C)C(=O)[C@H](C)[C@@H](O)[C@]1(C)O` [Erythromycin], the minimal inhibitory concentration (MIC) against E. faecium (E. faecium MMX 485, VRE vanA) was over 64 µg/mL. For the same molecule, in the assay with S. pneumoniae [3], the “CLSI QC range of MIC” value is “(0.03-0.12) μg/mL”.
